We go through seven compounds from patent US9751886B2, “4-amino-6-phenyl-6,7-dihydro[1,2,3]triazolo[1,5-A]pyrazine derivatives as inhibitors of beta-secretase (BACE)” (Janssen Pharmaceutica NV, priority 2013, dated 2017).

Experiment [1] addresses recombinant BACE1 protein (Homo sapiens (Human), UniProt P56817). Description: BACE1 Biochemical FRET based assay - Method 2. Particulars: 0.04 μg/ml BACE1, 20 μM substrate, 450 min, pH 5.0. An excerpt:
(§1) This assay is a Fluorescence Resonance Energy Transfer Assay (FRET) based assay. The substrate for this assay is an APP derived 13 amino acids peptide that contains the ‘Swedish’ Lys-Met/Asn-Leu mutation of the amyloid precursor protein (APP) beta-secretase cleavage site. This substrate also contains two fluorophores: (7-methoxycoumarin-4-yl) acetic acid (Mca) is a fluorescent donor with excitation wavelength at 320 nm and emission at 405 nm and 2,4-Dinitrophenyl (Dnp) is a proprietary quencher acceptor. […] Upon cleavage by BACE1, the fluorophore Mca is separated from the quenching group Dnp, restoring the full fluorescence yield of the donor. The increase in fluorescence is linearly related to the rate of proteolysis.
Briefly in a 384-well format recombinant BACE1 protein in a final concentration of 0.04 μg/ml is incubated for 450 minutes at room temperature with 20 μM substrate in incubation buffer (50 mM Citrate buffer pH 5.0, 0.05% PEG) in the presence of compound or DMSO. Next the amount of proteolysis is directly measured by fluorescence measurement (excitation at 320 nm and emission at 405 nm) at different incubation times (0, 30, 60, 90, 120 and 450 min). For every experiment a time curve (every 30 min between 0 min and 120 min) is used to determine the time where we find the lowest basal signal of the high control. The signal at this time (Tx) is used to subtract from the signal at 450 min. Results are expressed in RFU, as difference between T450 and Tx.

For experiment [2], the system named is Abeta 1-42 secreted by human neuroblastoma SKNBE2 cells expressing wild type hAPP695. Put plainly: BACE1 cellular αLisa assay in SKNBE2 cells, Abeta 1-42. The format is cell-based. Particulars: 18 hours incubation; for IC50: Homo sapiens, read-out: Cellular αLisa assay in SKNBE2 cells Abeta 42 pIC50 (converted). How it is done: (§2) In two αLisa assays the levels of Abeta total and Abeta 1-42 produced and secreted into the medium of human neuroblastoma SKNBE2 cells are quantified. The assay is based on the human neuroblastoma SKNBE2 expressing the wild type Amyloid Precursor Protein (hAPP695). The compounds are diluted and added to these cells, incubated for 18 hours and then measurements of Abeta 1-42 and Abeta total are taken. Abeta total and Abeta 1-42 are measured by sandwich αLisa. αLisa is a sandwich assay using biotinylated antibody AbN/25 attached to streptavidin coated beads and antibody Ab4G8 or cAb42/26 conjugated acceptor beads for the detection of Abeta total and Abeta 1-42 respectively. In the presence of Abeta total or Abeta 1-42, the beads come into close proximity. The excitation of the donor beads provokes the release of singlet oxygen molecules that trigger a cascade of energy transfer in the acceptor beads, resulting in light emission.

Experiment [3] concerns Abeta total secreted by human neuroblastoma SKNBE2 cells expressing wild type hAPP695. Put plainly: BACE1 cellular αLisa assay in SKNBE2 cells, Abeta total. The format is cell-based. Particulars: 18 hours incubation; for IC50: Homo sapiens, read-out: Cellular αLisa assay in SKNBE2 cells Abetatotal pIC50 (converted). As for the experimental part:
as §2

Experiment [4] deals with recombinant BACE2 protein (Homo sapiens (Human), UniProt Q9Y5Z0). Put plainly: BACE2 Biochemical FRET based assay. Particulars: 0.4 μg/ml BACE2, 10 μM substrate, 450 min, pH 5.0.
Chain of recombinant BACE2 protein (Q9Y5Z0 63-518): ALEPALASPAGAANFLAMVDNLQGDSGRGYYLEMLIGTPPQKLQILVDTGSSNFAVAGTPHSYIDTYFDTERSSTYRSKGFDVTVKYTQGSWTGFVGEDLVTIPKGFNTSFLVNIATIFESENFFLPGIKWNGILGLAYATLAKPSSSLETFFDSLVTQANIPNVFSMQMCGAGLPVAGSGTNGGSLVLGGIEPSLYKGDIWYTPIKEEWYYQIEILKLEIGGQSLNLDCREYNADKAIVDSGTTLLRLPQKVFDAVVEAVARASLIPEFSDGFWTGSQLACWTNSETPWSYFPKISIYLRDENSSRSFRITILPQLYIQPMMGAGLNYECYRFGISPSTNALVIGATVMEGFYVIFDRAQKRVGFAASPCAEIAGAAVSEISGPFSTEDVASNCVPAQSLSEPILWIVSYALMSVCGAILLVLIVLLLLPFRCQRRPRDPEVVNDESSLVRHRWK
Text: as §1, with “assay” for “assay is an APP derived 13 amino acids peptide that”, “the beta-secretase,” for “BACE1,”
Briefly in a 384-well format recombinant BACE2 protein in a final concentration of 0.4 μg/ml is incubated for 450 minutes at room temperature with 10 μM substrate in incubation buffer (50 mM Citrate buffer pH 5.0, 0.05% PEG, no DMSO) in the absence or presence of compound. Next the amount of proteolysis is directly measured by fluorescence measurement at T=0 and T=450 (excitation at 320 nm and emission at 405 nm). Results are expressed in RFU (Relative Fluorescence Units), as difference between T450 and TO.

Experiment [5] has as its system brain levels of soluble Aβ42, Aβ40. Description: In vivo Aβ lowering in non-transgenic rodents (MSD electrochemiluminescence). Also noted: species or system mouse. The settings on record: dose 10, s.c., untreated control = 100. An excerpt:
To determine whether acute administration of an Aβ lowering agent would reduce Aβ levels in vivo, non-transgenic rodents, e.g. mice or rats were used. Animals treated with the Aβ lowering agent were examined and compared to those untreated or treated with vehicle and brain levels of soluble Aβ42, Aβ40, Aβ38, and Aβ37 were quantitated by Meso Scale Discovery's (MSD) electrochemiluminescence detection technology. Treatment periods varied from hours (h) to days and were adjusted based on the results of the Aβ lowering once a time course of onset of effect could be established.
A typical protocol for measuring Aβ lowering in vivo is shown but it is only one of many variations that could be used to optimize the levels of detectable A. For example, Aβ lowering compounds were formulated in 20% of Captisol® (a sulfo-butyl ether of β-cyclodextrin) in water or 20% hydroxypropyl β cyclodextrin. The Aβ lowering agents were administered as a single oral dose or by any acceptable route of administration to overnight fasted animals. […]
Blood was collected by decapitation and exsanguinations in EDTA-treated collection tubes. Blood was centrifuged at 1900 g for 10 minutes (min) at 4° C. and the plasma recovered and flash frozen for later analysis. The brain was removed from the cranium and hindbrain. The cerebellum was removed and the left and right hemisphere were separated. The left hemisphere was stored at −18° C. for quantitative analysis of test compound levels. The right hemisphere was rinsed with phosphate-buffered saline (PBS) buffer and immediately frozen on dry ice and stored at −80° C. until homogenization for biochemical assays.
Mouse brains from non-transgenic animals were resuspended in 8 volumes of 0.4% DEA (diethylamine)/50 mM NaCl containing protease inhibitors (Roche-11873580001 or 04693159001) per gram of tissue, e.g. for 0.158 g brain, add 1.264 ml of 0.4% DEA. All samples were homogenized in the FastPrep-24 system (MP Biomedicals) using lysing matrix D (MPBio #6913-100) at 6 m/s for 20 seconds. Homogenates were centrifuged at 20800×g for 5 min and supernatants collected. Supernatants were centrifuged at 221.300×g for 50 min. The resulting high speed supernatants were then transferred to fresh eppendorf tubes. Nine parts of supernatant were neutralized with 1 part 0.5 M Tris-HCl pH 6.8 and used to quantify Aβ.
To quantify the amount of Aβ42, Aβ40, Aβ38, and Aβ37 in the soluble fraction of the brain homogenates, simultaneous specific detection of Aβ42, Aβ40, Aβ38, and Aβ37 was performed using MSD's electro-chemiluminescence multiplex detection technology. In this assay purified monoclonal antibodies specific for Abeta37 (JRD/Aβ37/3), Abeta38 (J&JPRD/Aβ38/5), Abeta40 (JRF/cAβ40/28), and Abeta42 (JRF/cAβ(342/26) were coated on MSD 4-plex plates. Briefly, the standards (a dilution of synthetic Aβ42, Aβ40, Aβ38, and Aβ37) were prepared in 1.5 ml Eppendorf tube in Ultraculture, with final concentrations ranging from 10000 to 0.3 pg/m. The samples and standards were co-incubated with Sulfo-tag labelled JRF/rAβ/2 antibody to the N-terminus of Aβ as detector antibody. 50 μl of conjugate/sample or conjugate/standards mixtures were then added to the antibody-coated plate. The plate was allowed to incubate overnight at 4° C. in order to allow formation of the antibody-amyloid complex. Following this incubation and subsequent wash steps the assay was finished by adding read buffer according to the manufacturer's instructions (Meso Scale Discovery, Gaitherburg, Md.).
The SULFO-TAG emits light upon electrochemical stimulation initiated at the electrode. MSD Sector instrument SI6000 was used for signal read-out.
The results are shown in Table 8 (value for untreated animals as control (Ctrl) was set at 100): […]

Chain of recombinant BACE1 protein (P56817 46-501): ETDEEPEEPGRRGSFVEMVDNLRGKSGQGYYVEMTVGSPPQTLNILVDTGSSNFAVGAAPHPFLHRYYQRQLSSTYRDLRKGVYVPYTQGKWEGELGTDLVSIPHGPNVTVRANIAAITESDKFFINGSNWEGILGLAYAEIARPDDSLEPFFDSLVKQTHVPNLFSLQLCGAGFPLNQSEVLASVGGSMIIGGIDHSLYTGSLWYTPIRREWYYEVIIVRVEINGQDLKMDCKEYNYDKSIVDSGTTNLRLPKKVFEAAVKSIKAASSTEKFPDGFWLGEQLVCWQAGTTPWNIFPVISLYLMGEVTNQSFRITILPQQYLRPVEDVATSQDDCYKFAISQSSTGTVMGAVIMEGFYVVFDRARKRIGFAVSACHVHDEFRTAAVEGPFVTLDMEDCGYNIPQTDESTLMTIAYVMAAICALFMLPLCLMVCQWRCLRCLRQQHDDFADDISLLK

As for `NC1=NC(CF)(c2cc(NC(=O)c3ccc(F)cn3)ccc2F)Cn2nncc21` (racemic) [Compound 9, (rac)-N-{3-[4-amino-6-(fluoromethyl)-6,7-dihydro[1,2,3]triazolo[1,5-a]pyrazin-6-yl]-4-fluorophenyl}-5-fluoropyridine-2-carboxamide], the IC50 is 8.32 nM in experiment [1] (read-out: BACE1 Biochemical FRET based assay - Method 2 pIC50 (converted)), 57.5 nM in experiment [2], 56.2 nM in experiment [3] and 8.32 nM in experiment [4] (read-out: BACE2 Biochemical FRET based assay pIC50 (converted)).

With `C[C@@]1(c2cc(NC(=O)c3ccc(C#N)cn3)ccc2F)Cn2nncc2C(N)=N1` [Compound 2, N-{3-[(6R)-4-Amino-6-methyl-6,7-dihydro[1,2,3]triazolo[1,5-a]pyrazin-6-yl]-4-fluorophenyl}-5-cyanopyridine-2-carboxamide], the results for the IC50 in experiment [2] and in experiment [3] were 1.1 nM and 1.05 nM, respectively. In addition, the “Aβ40 (% vs Ctrl)_Mean” value in experiment [5] (2 h after administration) was 44 % vs Ctrl; in experiment [5] (4 h after administration) it was 61 % vs Ctrl. The “Aβ42 (% vs Ctrl)_Mean” value in experiment [5] (2 h after administration) came to 44 % vs Ctrl; in experiment [5] (4 h after administration) it was 50 % vs Ctrl.

On to `C[C@@]1(c2cc(NC(=O)c3nn(C(F)F)cc3Cl)ccc2F)Cn2nncc2C(N)=N1` [Compound 5, N-{3-[(6R)-4-Amino-6-methyl-6,7-dihydro[1,2,3]triazolo[1,5-a]pyrazin-6-yl]-4-fluorophenyl}-4-chloro-1-(difluoromethyl)-1H-pyrazole-3-carboxamide], for which, in experiment [1], the “BACE1 Biochemical FRET based assay - Method 2 pIC50” value (“BACE1 Biochemical FRET based assay” below) amounted to 8.72. Moreover, the figures for the IC50 in experiment [2] and in experiment [3] were 3.72 nM and 3.09 nM, respectively. The “BACE2 Biochemical FRET based assay pIC50” value in experiment [4] was 8.73.

For `C[C@@]1(c2cc(NC(=O)c3cnc(OCC(F)(F)F)cn3)ccc2F)Cn2nncc2C(N)=N1` [Compound 6, N-{3-[(6R)-4-amino-6-methyl-6,7-dihydro[1,2,3]triazolo[1,5-a]pyrazin-6-yl]-4-fluoropheny}-5-(2,2,2-trifluoroethoxy)pyrazine-2-carboxamide], the “BACE1 Biochemical FRET based assay” value in experiment [1] was 8.51. In addition, the “Cellular αLisa assay in SKNBE2 cells Abeta 42 pIC50” value in experiment [2] is recorded as 8.28. The “Cellular αLisa assay in SKNBE2 cells Abetatotal pIC50” value in experiment [3] amounted to 8.32. In addition, the “BACE2 Biochemical FRET based assay pIC50” value in experiment [4] is recorded as 7.22.

With `C[C@@]1(c2cc(NC(=O)c3cnc(OCF)cn3)ccc2F)Cn2nncc2C(N)=N1` [Compound 7, N-{3-[(6R)-4-amino-6-methyl-6,7-dihydro[1,2,3]triazolo[1,5-a]pyrazin-6-yl]-4-fluoropheny}-5-(fluoromethoxy)pyrazine-2-carboxamide], in experiment [1], the “BACE1 Biochemical FRET based assay” value is given as 8.52. In addition, the “Cellular αLisa assay in SKNBE2 cells Abeta 42 pIC50” value in experiment [2] was found to be 8.87. The “Cellular αLisa assay in SKNBE2 cells Abetatotal pIC50” value in experiment [3] was determined as 8.86. In experiment [4], the “BACE2 Biochemical FRET based assay pIC50” value is on record as 7.78.

On to `C[C@@]1(c2cc(NC(=O)c3ccc(F)cn3)cc(F)c2F)Cn2nncc2C(N)=N1` [Compound 8, N-{3-[(6R)-4-Amino-6-methyl-6,7-dihydro[1,2,3]triazolo[1,5-a]pyrazin-6-yl]-4,5-difluorophenyl}-5-fluoropyridine-2-carboxamide], for which the “BACE1 Biochemical FRET based assay” value in experiment [1] is recorded as 8.36. For the same compound, the IC50 in experiment [2] is 4.68 nM; in experiment [3] it was 4.47 nM. For the same compound, the “Aβ40 (% vs Ctrl)_Mean” value came to 56 % vs Ctrl in experiment [5] (2 h after administration) and 136 % vs Ctrl in experiment [5] (4 h after administration). For the same compound, the figures for the “Aβ42 (% vs Ctrl)_Mean” value in experiment [5] (2 h after administration) and in experiment [5] (4 h after administration) were 56 % vs Ctrl and 105 % vs Ctrl, respectively.

For the compound `NC1=N[C@@](CF)(c2cc(NC(=O)c3ccc(F)cn3)ccc2F)Cn2nncc21` [Compound 11, N-{3-[(6S)-4-amino-6-(fluoromethyl)-6,7-dihydro[1,2,3]triazolo[1,5-a]pyrazin-6-yl]-4-fluorophenyl}-5-fluoropyridine-2-carboxamide], in experiment [1], the “BACE1 Biochemical FRET based assay” value is 6.12. Also, the IC50 in experiment [2] was 4170 nM; in experiment [3], 4470 nM. Further, in experiment [4], the “BACE2 Biochemical FRET based assay pIC50” value came to 6.3.
